Test results from patent publication US20030073731A1, “Compositions and methods of the use thereof achiral analogues of CC-1065 and the duocarmycins” (priority 2000, published 2003).

How the values were obtained:
plasmid pBR322 DNA = experiment: Taq polymerase stop assay; format: biochemical
[1] = mice, therapeutic doses; cited from earlier work
[2] = system: K562 human chronic myeloid leukemia cells; experiment: cells; format: cell-based
Procedure: The cytotoxicity was determined using a MTT tetrazolium dye assay (42). […] The incubation was terminated by centrifugation (5 minutes, 300 g) and the cells were washed once with drug-free medium. Following the appropriate drug treatment, the cells were transferred to 96-well microtitre plates, 10^4 cells per well, 8 wells per sample. Plates were then kept in the dark at 37° C. in a humidified atmosphere containing 5% CO2. […] Following incubation of the plates for 4 days (to allow control cells to increase in number by 10 fold) 20 μL of a 5 mg/mL solution of MTT in phosphate buffered saline was added to each well and the plates further incubated for 5 hours. The plates were then centrifuged for 5 minutes at 300 g and the bulk of the medium pipetted from the cell pellet leaving 10-20 μL per well. 200 μL DMSO was added to each well and the samples agitated to ensure complete mixing. The optical density was the read at a wavelength of 550 nm on a Titertek Multiscan ELISA plate reader, and the dose-response curve was constructed.

L1210 leukemia cells = experiment: cells; format: cell-based, murine; details: Mus musculus; L1210, 72 hr incubation
Procedure: (§1) The P815 and L1210 cell lines were obtained from American Type Tissue Culture Collection (ATCC). The cell lines were grown in Delbecco's Modified Eagle Medium (DMEM, Atlanta Biologicals) supplemented with 10% fetal bovine serum, Hepes Buffer (2 mM, Mediatech Cellgro, 25-060-Cl), L-Glutamine (2 mM, Mediatech Cellgro), and penicillin/streptomycin (50,000 units penicillin, […] streptomycin, Atlanta Biologicals). Cells were maintained at 37° C. in a 5% humidified CO2 atmosphere. […] This cell suspension (100 μL) was added to 96 well flat-bottom cell culture plates. At this concentration, 80,000 cells were seeded in each well. Drug solutions (dissolved in DMSO and diluted in DMEM) were added to each well (5 μL/well) resulting in final concentrations ranging from […] to 1×10^−12 M. Quadruplicate wells were prepared for each drug concentration. The plates were incubated for 72 hr at 37° C. in a 5% CO2 atmosphere. MTT (3-(4,5-dimethylthiazol-2-yl)-2,5-diphenyl tetrazolium bromide) was dissolved in PBS (5 mg/ml). After the indicated cell incubation period, 10 μL of this stock MTT solution was added to each well and the plates were further incubated for 4 h at 37° C. in a 5% CO2 atmosphere. […] The contents of the well were mixed thoroughly by pipetting the cell suspension up and down and the plates were allowed to sit at room temperature for 15 min in order to allow for full development of the purple color. The plates were read on a Dynatech Plate Reader, utilizing Dynex Revelation 3.2 software, with a test wavelenth of 570 nm and a reference wavelength of […].

P815 mastocytoma cells = experiment: cells; format: cell-based, murine; details: Mus musculus; P815, 72 hr incubation
Procedure: as §1

[3] = system: human tumor cells cultivated in polyvinylidene fluoride (PVDF) hollow fibers; experiment: Hollow fiber assay for preliminary in vivo testing; parameters: species or system mice
Procedure: For these assays, human tumor cells are cultivated in polyvinylidene fluoride (PVDF) hollow fibers, and a sample of each cell line is implanted into each of two physiologic compartments (intraperitoneal and subcutaneous) in mice. […] Three mice are treated with potential antitumor compounds at each of 2 test doses by the intraperitoneal route using a QD×4 treatment schedule. Vehicle controls consist of 6 mice receiving the compound diluent only. The fiber cultures are collected on the day following the last day of treatment. To assess anticancer effects, viable cell mass is determined for each of the cell lines using a formazan dye (MTT) conversion assay. From this, the %T/C can be calculated using the average optical density of the compound treated samples divided by the average optical density of the vehicle controls. In addition, the net increase in cell mass can be determined for each sample as a sample of fiber cultures are assessed for viable cell mass on the day of implantation into mice. Thus, the cytostatic and cytocidal capacities of the test compound can be assessed.
The data are reported as %T/C for each of the 2 compound doses against each of the cell lines with separate values calculated for the intraperitoneal and subcutaneous samples.
The intraperitoneal and subcutaneous samples are scored separately so that criteria (1) and (2) can be evaluated.

[4] = system: panel of 60 human cancer cell lines; details: 48 hour exposure
L1210 leukemia = details: carzelesin 400 μg/kg, adozelesin 100 μg/kg; cited from earlier work
melanoma = details: phase I clinical trial; cited from earlier work
[5] = system: mouse L1210 leukemia cells; details: cited from earlier work
[6] = 72 h, continuous exposure (3 days)

Compound: 4-(2-Bromoethyl)-3-[5-(5-benzofuran-2-carboxamido)indole-2-carboxamido]phenol [Compound 2]
- efficiency in alkylating DNA compared with chloro-compound 1 (plasmid pBR322 DNA): less efficient in alkylating DNA

Compound: COC(=O)c1cc2c([nH]1)C(=O)C=C1N(C(=O)c3cc4cc(OC)c(OC)c(OC)c4[nH]3)CC3CC123 (single isomer, unassigned; (+)) [DUMSA, (+)-duocarmycin SA]
- delayed lethality [1]: devoid of this toxic side effect

Compound: COc1cc2cc(C(=O)Nc3cc(N)ccc3CCCl)[nH]c2c(OC)c1OC [Compound 24, 4-(2-Chloroethyl)-3-(5,6,7-trimethoxyindole-2-carboxamido)aniline]
- IC50 [2, 6]: 1300 ± 300 nM

Compound: COc1cc2cc(C(=O)Nc3cc(N)c4ccccc4c3CCCl)[nH]c2c(OC)c1OC [Compound 25, 4-(2-Chloroethyl)-3-(5,6,7-trimethoxyindole-2-carboxamido)-1-naphthylamine]
- IC50 ([2]; 1 hour exposure): 18 nM
- IC50 [2, 6]: 45 nM
- IC50 (L1210 leukemia cells): 180 nM
- IC50 (P815 mastocytoma cells): 68 nM
- cell kill ([3]; hollow fiber studies): cell kill observed
- SC score ([3]; subcutaneous fibers): 8
- cytotoxic activity in the NCI screen [4]: activity in the micromolar range

Compound: COc1cc2cc(C(=O)Nc3cc(O)c4ccccc4c3CCCl)[nH]c2c(OC)c1OC [Compound 26, 4-(2-Chloroethyl)-3-(5,6,7-trimethoxyindole-2-carboxamido)-1-naphthol]
- IC50 ([2]; 1 hour exposure): 17 nM
- IC50 [2, 6]: 150 nM
- IC50 (L1210 leukemia cells): 55 nM
- cytotoxic activity in the NCI screen [4]: activity in the micromolar range

Compound: Cc1c[nH]c2c1[C@@]13C[C@@H]1CN(C(=O)c1cc4cc(NC(=O)c5cc6ccccc6o5)ccc4[nH]1)C3=CC2=O [adozelesin]
- ILS (L1210 leukemia): 90±11 % ILS
- clinical response (melanoma): partial response on a melanoma patient

Compound: CCN(CC)c1ccc2cc(C(=O)Nc3ccc4[nH]c(C(=O)N5C[C@@H](CCl)c6c5cc(OC(=O)Nc5ccccc5)c5[nH]cc(C)c65)cc4c3)oc2c1 [carzelesin]
- ILS (L1210 leukemia): 150±8 % ILS

Compound: (+)-CC1065
- IC50 ([5]; L1210): 0.02 nM
- IC50 values ([5]; growth of mouse L1210 leukemia cells in culture): pM range
- delayed lethality [1]: delayed lethality in mice at therapeutic doses
